# From the supplement of paper PMC11061612
# Assays:
# RD (Rhabdomyosarcoma) [1] = test: Bliss excess, mean over the matrix (fraction); higher = more synergy
# Outline: (§1)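 Cell lines grown in DMEM/F12 or RPMI with 10% FBS were plated in 1536-well plates and held 24 hours at 37°C, 5% CO2 before 72 hours of exposure to two-drug dose matrices, with DMSO typically at 0.2%. CellTiter-Glo 2.0 luminescence gave viability, which was converted to inhibition. Vehicle wells were set to 0 and blank wells to 1. Combination Emax is the second-highest inhibition in the matrix, and Bliss excess is the observed combination effect minus the expected EA + EB − EA·EB, where EA and EB are the single-agent effects.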
# [2] = test system: SU-DHL-5 (B-Cell Non-Hodgkin's Lymphoma); test: as above
# Outline: as §1
# [3] = test system: SUP-B15 (B-Lymphoblastic Leukemia); test: as above
# Outline: as §1
# [4] = test system: HCC1187 (Breast Carcinoma); test: as above
# Outline: as §1
# [5] = test system: JHH-4 (Hepatocellular Carcinoma); test: as above
# Outline: as §1
# [6] = test system: NCI-H661 (Non-Small Cell Lung Carcinoma); test: as above
# Outline: as §1
# [7] = test system: CHSA8926 (Chondrosarcoma); test: as above
# Outline: as §1
# [8] = test system: DAN-G (Pancreatic Carcinoma); test: as above
# Outline: as §1
# [9] = test system: SNU-398 (Hepatocellular Carcinoma); test: as above
# Outline: as §1
# [10] = test system: IM-95 (Gastric Carcinoma); test: as above
# Outline: as §1
# [11] = test system: ESO51 (Esophageal Adenocarcinoma); test: as above
# Outline: as §1
# G-361 (Melanoma) [12] = test: as above
# Outline: as §1
# [13] = test system: PC-3 (Prostate Carcinoma); test: as above
# Outline: as §1
# [14] = test system: KY821 (Acute Myeloid Leukemia); test: as above
# Outline: as §1
# [15] = test system: H9 (T-Cell Non-Hodgkin's Lymphoma); test: as above
# Outline: as §1
# [16] = test system: SK-GT-2 (Gastric Carcinoma); test: as above
# Outline: as §1
# [17] = test system: KMS-12-BM (Plasma Cell Myeloma); test: as above
# Outline: as §1
# [18] = test system: MOLM-13 (Acute Myeloid Leukemia); test: as above
# Outline: as §1
# [19] = test system: RPMI-8226 (Plasma Cell Myeloma); test: as above
# Outline: as §1
# [20] = test system: 8505C (Thyroid Gland Carcinoma); test: as above
# Outline: as §1
# RD (Rhabdomyosarcoma) [21] = test: combination Emax (second highest fraction inhibited in the dose matrix, 72 h); higher = more inhibition; extreme values may be limits of the assay
# Outline: as §1
# [22] = test system: SU-DHL-5 (B-Cell Non-Hodgkin's Lymphoma); test: as above
# Outline: as §1
# [23] = test system: SUP-B15 (B-Lymphoblastic Leukemia); test: as above
# Outline: as §1
# [24] = test system: HCC1187 (Breast Carcinoma); test: as above
# Outline: as §1
# [25] = test system: JHH-4 (Hepatocellular Carcinoma); test: as above
# Outline: as §1
# [26] = test system: NCI-H661 (Non-Small Cell Lung Carcinoma); test: as above
# Outline: as §1
# [27] = test system: CHSA8926 (Chondrosarcoma); test: as above
# Outline: as §1
# [28] = test system: DAN-G (Pancreatic Carcinoma); test: as above
# Outline: as §1
# [29] = test system: SNU-398 (Hepatocellular Carcinoma); test: as above
# Outline: as §1
# [30] = test system: IM-95 (Gastric Carcinoma); test: as above
# Outline: as §1
# [31] = test system: ESO51 (Esophageal Adenocarcinoma); test: as above
# Outline: as §1
# G-361 (Melanoma) [32] = test: as above
# Outline: as §1
# [33] = test system: PC-3 (Prostate Carcinoma); test: as above
# Outline: as §1
# [34] = test system: KY821 (Acute Myeloid Leukemia); test: as above
# Outline: as §1
# [35] = test system: H9 (T-Cell Non-Hodgkin's Lymphoma); test: as above
# Outline: as §1
# [36] = test system: SK-GT-2 (Gastric Carcinoma); test: as above
# Outline: as §1
# [37] = test system: KMS-12-BM (Plasma Cell Myeloma); test: as above
# Outline: as §1
# [38] = test system: MOLM-13 (Acute Myeloid Leukemia); test: as above
# Outline: as §1
# [39] = test system: RPMI-8226 (Plasma Cell Myeloma); test: as above
# Outline: as §1
# [40] = test system: 8505C (Thyroid Gland Carcinoma); test: as above
# Outline: as §1
# [41] = test system: HCC1419 (Breast Carcinoma); test: Bliss excess, mean over the matrix (fraction); higher = more synergy
# Outline: as §1
# [42] = test system: HCC1419 (Breast Carcinoma); test: combination Emax (second highest fraction inhibited in the dose matrix, 72 h); higher = more inhibition; extreme values may be limits of the assay
# Outline: as §1
# 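Throughout, for Bliss excess, mean over the matrix: after 72 h of two-drug dosing.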
compound,measurement,setting,value
"CC(=O)c1c(C)c2cnc(Nc3ccc(N4CCNCC4)cn3)nc2n(C2CCCC2)c1=O [Palbociclib] + CN(CC[C@H](CSC1=CC=CC=C1)NC2=C(C=C(C=C2)S(=O)(=O)NC(=O)C3=CC=C(C=C3)N4CCC(CC4)[C@H](C5=CC=CC=C5C6=CC=C(C=C6)Cl)O)S(=O)(=O)C(F)(F)F)CCO [AZD4320] (first compound max 10 µM, 7x7, partner max 1 µM)",Bliss excess,RD (Rhabdomyosarcoma) [1],0.0323
same,Bliss excess,[2],-0.0381
same,Bliss excess,[3],-0.0515
same,Bliss excess,[4],-0.0429
same,Bliss excess,[5],-0.0051
same,Bliss excess,[6],-0.0643
same,Bliss excess,[7],-0.0753
same,Bliss excess,[8],-0.0408
same,Bliss excess,[9],-0.0484
same,Bliss excess,[10],-0.133
same,Bliss excess,[11],-0.0853
same,Bliss excess,G-361 (Melanoma) [12],-0.0222
same,Bliss excess,[13],-0.0472
same,Bliss excess,[14],-0.0069
same,Bliss excess,[15],-0.0114
same,Bliss excess,[16],-0.0151
same,Bliss excess,[17],0.0159
same,Bliss excess,[18],-0.0259
same,Bliss excess,[19],-0.0531
same,Bliss excess,[20],-0.0924
same,combination Emax,RD (Rhabdomyosarcoma) [21],0.875
same,combination Emax,[22],1
same,combination Emax,[23],1
same,combination Emax,[24],0.239
same,combination Emax,[25],0.703
same,combination Emax,[26],0.107
same,combination Emax,[27],0.741
same,combination Emax,[28],0.288
same,combination Emax,[29],0.308
same,combination Emax,[30],0.471
same,combination Emax,[31],0.15
same,combination Emax,G-361 (Melanoma) [32],0.598
same,combination Emax,[33],0.159
same,combination Emax,[34],1
same,combination Emax,[35],0.983
same,combination Emax,[36],0.531
same,combination Emax,[37],1
same,combination Emax,[38],1
same,combination Emax,[39],0.95
same,combination Emax,[40],0.0974
"C[C@@H](c1ccc2nccn2c1)n1nnc2ncc(-c3cnn(C)c3)nc21 [Savolitinib] + CN(CC[C@H](CSC1=CC=CC=C1)NC2=C(C=C(C=C2)S(=O)(=O)NC(=O)C3=CC=C(C=C3)N4CCC(CC4)[C@H](C5=CC=CC=C5C6=CC=C(C=C6)Cl)O)S(=O)(=O)C(F)(F)F)CCO [AZD4320] (first compound max 1 µM, 7x7, partner max 1 µM)",Bliss excess,RD (Rhabdomyosarcoma) [1],-0.0348
same,Bliss excess,[2],-0.0451
same,Bliss excess,[3],-0.0182
same,Bliss excess,[4],-0.0091
same,Bliss excess,[5],-0.0309
same,Bliss excess,[41],-0.0736
same,Bliss excess,[6],-0.0669
same,Bliss excess,[7],-0.0241
same,Bliss excess,[8],-0.0378
same,Bliss excess,[9],-0.0665
same,Bliss excess,[10],-0.0477
same,Bliss excess,[11],-0.0038
same,Bliss excess,G-361 (Melanoma) [12],-0.0621
same,Bliss excess,[13],-0.0418
same,Bliss excess,[14],0.0059
same,Bliss excess,[15],-0.0425
same,Bliss excess,[16],-0.0294
same,Bliss excess,[17],-0.0005
same,Bliss excess,[18],0.0288
same,Bliss excess,[19],-0.0379
same,Bliss excess,[20],-0.0719
same,combination Emax,RD (Rhabdomyosarcoma) [21],0.646
same,combination Emax,[22],0.24
same,combination Emax,[23],1
same,combination Emax,[24],0.205
same,combination Emax,[25],0.256
same,combination Emax,[42],0.325
same,combination Emax,[26],0.189
same,combination Emax,[27],0.528
same,combination Emax,[28],0.199
same,combination Emax,[29],0.245
same,combination Emax,[30],0.675
same,combination Emax,[31],0.95
same,combination Emax,G-361 (Melanoma) [32],0.198
same,combination Emax,[33],0.189
same,combination Emax,[34],1
same,combination Emax,[35],0.929
same,combination Emax,[36],0.136
same,combination Emax,[37],1
same,combination Emax,[38],1
same,combination Emax,[39],0.944
same,combination Emax,[40],0.201
